From patent publication US10456388B2, “Antihistamine for use in treatment of breast cancer” (BELINA PHARMA AB, priority 2015, dated 2019)
Read-outs that look alike come from different tables or passages of the source.

Experiments:
women with invasive BC [1] = conditions: for Hazard ratio Exp(B), ER Negative Breast Cancer / Hazard ratio Exp(B), ER Positive Breast Cancer / BC specific survival compared to controls (Kaplan-Meier, univariate): late entry model; for Hazard ratio Exp(B), ER Negative Breast Cancer / Hazard ratio Exp(B), ER Positive Breast Cancer / Hazard ratio Exp(B), Cox proportional hazard - late entry model: adjusted for age at BC diagnosis and TN-stage; for HR (CI), late entry model: adjusted for age at BC diagnosis and TN; for Hazard ratio Exp(B), Cox proportional hazard - late entry model: ever-use vs controls, cases before 1st of Jul. 2005 and unknown N-status censored, Table 5; for Dead in BC (Yes): groups by main antihistamine used, patients from 1st of Jul. 2005-31st of Dec. 2008; for BC specific survival compared to controls (Kaplan-Meier, univariate): FIGS. 4 and 5
breast cancer cases = test: Replication study, extended breast cancer material Swedish Cancer Registry 2000-2013 (n=103 500 cases), late entry models; assay type: in vivo, human; conditions: for Breast cancer survival HR / Overall survival HR: use after diagnosis, adjusted for age, tumour stage, late entry models; for BC survival HR: extended study, real patient data; for Survival of users compared with non-users, in words: replication study, Table 10; for Breast cancer survival HR by desloratadine use: late entry model
Method: Using an extended breast cancer material of all cases from the Swedish Cancer Registry 2000-2013 (n=103 500 cases) linking the data with the Drug Prescription Registry a replication study was carried out. The data from this extended study can be found in Tables 10 and 11. With the larger set of data, the effect for each individual antihistamine becomes more pronounced.
Using an extended breast cancer material of all cases from the Swedish Cancer Registry 2000-2013 (n=103 500 cases) linking the data with the Drug Prescription Registry a replication study was carried out. The data from this extended study are represented in tables 10 and 11.
Using an extended breast cancer material of all cases from the Swedish Cancer Registry 2000-2013 (n=103 500 cases) linking the data with the Drug Prescription Registry, a replication study was carried out, as shown in table 10.

women with invasive BC [2] = conditions: for BC specific survival compared to controls (Kaplan-Meier, univariate): ever-use model, FIGS. 1 to 3; for Dead in BC (Yes): groups by main antihistamine used, all patients from 2000-2008
[3] = multi dose studies with 100 mg per day; cited from earlier work
[4] = Survival 2009-2014 (title: 2009-2013)

Structure (SMILES)	Hazard ratio Exp(B), ER Negative Breast Cancer (women with invasive BC [1])	Hazard ratio Exp(B), ER Positive Breast Cancer (women with invasive BC [1])	HR (CI), late entry model (women with invasive BC [1])	Hazard ratio Exp(B), Cox proportional hazard - late entry model (women with invasive BC [1])	Dead in BC (Yes) (women with invasive BC [1])	BC specific survival compared to controls (Kaplan-Meier, univariate) (women with invasive BC [1])	Breast cancer survival HR (breast cancer cases; Survival 2005-2008)	Overall survival HR (breast cancer cases; Survival 2005-2008)	Breast cancer survival HR (breast cancer cases; [4])	Overall survival HR (breast cancer cases; [4])	BC survival HR (breast cancer cases)	Survival of users compared with non-users, in words (breast cancer cases)	BC specific survival compared to controls (Kaplan-Meier, univariate) (women with invasive BC [2])	Dead in BC (Yes) (women with invasive BC [2])	Effect on breast cancer survival rate by treatment period (FIG. 7) (women with invasive BC [1]; use only after the BC diagnosis)	Effect on breast cancer survival rate by treatment period (FIG. 7) (women with invasive BC [1]; use only before the BC diagnosis)	Breast cancer survival HR by desloratadine use (breast cancer cases; <400 days use vs never)	Survival HR, users compared with non users (breast cancer cases; years before 2009)	Breast cancer survival HR by desloratadine use (breast cancer cases; ≥400 days use vs never)	Clinical side effects [3]
O=C(O)COCCN1CCN(C(c2ccccc2)c2ccc(Cl)cc2)CC1 (centres unmarked) [Cetirizine, cetirizine]	1.491	2.166	1.13 (0.96-1.33)	1.194	16.5%	non-statistically significant longer BC specific survival	1.08	1.41	1.21	1.09	1.28	negatively affects survival	initially had a higher survival percentage compared to controls, but with time it became lower compared to controls	18.0%						
Clc1ccc2c(c1)CCc1cccnc1C2=C1CCNCC1 [Desloratadine, desloratadine]					8.1%	statistically significant longer BC specific survival	0.47	0.47	0.74	0.71		better overall and BC specific survival	clear, statistically significant, longer BC specific survival	7.1%	clear positive effects can be shown	no positive effects on breast cancer survival rate can be established	0.94	0.63	0.62	
CC(C)(C)c1ccc(C(=O)CCCN2CCC(OC(c3ccccc3)c3ccccc3)CC2)cc1 [Ebastin, ebastin]			0.50 (0.22-1.12)		5.7%	statistically significant longer BC specific survival	0.25	0.48	0.75	0.91		better overall and BC specific survival	clear, statistically significant, longer BC specific survival	6.7%						did not show any further clinical side effects
CC(C)(C(=O)O)c1ccc(C(O)CCCN2CCC(C(O)(c3ccccc3)c3ccccc3)CC2)cc1 (centres unmarked) [Fexofenadine, fexofenadine]	.316	.826	0.73 (0.30-1.76)	.802	11.6%	non-statistically significant longer BC specific survival	1.20	1.40	0.85	0.65			clear, statistically significant, longer BC specific survival	9.0%						
CN1CCC[C@@H]1CCO[C@](C)(c1ccccc1)c1ccc(Cl)cc1 [Klemastine, klemastine]			0.98 (0.80-1.19)		14.3%	non-statistically significant longer BC specific survival	1.43	2.07	0.94	1.08	1.12	negatively affects survival	clear, statistically significant, longer BC specific survival	13.8%						
CCOC(=O)N1CCC(=C2c3ccc(Cl)cc3CCc3cccnc32)CC1 [Loratadine, loratadine]	.945	1.087	0.74 (0.60-0.93)	.816	10.4%	statistically significant longer BC specific survival	0.77	1.05	0.93	0.86			clear, statistically significant, longer BC specific survival	11.7%						
